{"source": "patent US20160310524A1", "about": "“COMPOSITIONS AND METHODS FOR TREATING DYSREGULATED SYSTEMS” (priority 2013, published 2016)", "format_in_all_cases": "in vivo", "key": {"[1]": {"test_system": "patients where involvement with glutamate is suspected", "assay": "Low dose (Trojan horse) treatment of patients where involvement with glutamate is suspected", "text": "For example one of the stimulating systems in the body is the glutamate receptor mechanism. Some of the biggest challenges in neuropsychiatric pharmacology is breaking through the defenses of these “buffered” systems like NMDA. The “Trojan horses” can enter into the receptor mechanism and change it without disturbing the situation. This explains why certain diseases that are not well treated, such as autism, have responded to any number of treatments but none of them consistently. If the balance between more autistic and less autistic behavior is very much leaning toward improved socialization, then perhaps any “Trojan horse” that can slip past the “fortress” of the glutamate receptors that are refusing to participate may add enough positive to affect socialization and the child has a miraculous response to the minute dose of medicine.\nExamples: low dose Abilify and mecamylamine have been successful in treating patients where involvement with glutamate is suspected. Indeed we have few disorders that are known to be caused by glutamate despite the large role it plays in brain function. One medication that has been used for several years is Mematine, which is supposed to help memory in patients with Alzheimer's. […] Another example is the destructive flashbacks seen when individuals have taken PCP. […]"}, "[2]": {"test_system": "seizure patient with rage behavior", "assay": "Case number 2: seizure patient with rage behavior", "procedure": "The patient had been on a large dose thioridazine (400 mg/day).\nOne drives fear and involves beta-receptors. The other drives aggression and involves alpha-receptors."}, "[3]": {"assay": "Effect of memantine on socialization in people", "conditions": "in many people"}, "[4]": {"test_system": "subject with dissociation disorder", "assay": "Example protocol for memantine (Namenda) in dissociation disorder: sample chart for an example patient", "procedure": "Example Protocol for Memantine (Namenda®)\nDay 1: Give Namenda ½ of a 5 mg tablet in the morning.\nDay 2: If the patient has absolutely no positive change in their behavior in the form of genuine social interactions, give another ½ of a 5 mg tablet in the morning.\nDay 3: No matter what happened, give no Namenda on Day 3.\nIf there has been no improvement, give ½ of a 5 mg tablet in the morning.\nDay 5: If there has been no improvement since Day 1, give ½ of a 5 mg tablet in the morning.\nDay 6: No matter what happens, give no Namenda on Day 6.\nDay 7: If there has been only minimal improvement after a total of 7.5 mg of Namenda, give ½ of a 5 mg Namenda. If there has been no improvement after a total of 10 mg of Namenda, give ½ of a 5 mg Namenda. Otherwise, give no Namenda on Day 7. […]\nHere is a sample chart for an example patient following the steps and a plan for week 2. […]\nSide effects of Namenda: how to know if the dose is too high. The negative social effects of Namenda can be described as disinhibitory. This mean that the person's normal understanding of personal boundaries with others is lost—i.e., the patient loses their inhibition like someone who is intoxicated. They may be excessively aggressive both verbally and physically about incidental matters. They may become intrusive into other people's business. They may become flirtatious or aggressive. If a person has any of these behaviors it most likely means that the Namenda dose is getting too high."}, "[5]": {"test_system": "schizophrenic acute psychosis patients and patients having autism spectrum social disorder", "assay": "Mecamylamine in patients with schizophrenic acute psychosis or autism spectrum social disorder: verbal communication", "procedure": "In some embodiments, the effective dose of mecamylamine is 0.025 mg/kg to about 0.125 mg/kg twice a week. In some cases, the effective dose of mecamylamine in schizophrenic acute psychosis patients and patients having autism spectrum social disorder results in improved verbal communication from 50 to 150%. In some embodiments, one dose may have an effect of improved verbal communication up to two months."}, "[6]": {"conditions": "Day 1, dose given ½ of a 5 mg Namenda"}, "[7]": {"conditions": "Day 2, dose given ½ of a 5 mg Namenda"}, "[8]": {"conditions": "Day 5, dose given ½ of a 5 mg Namenda"}}}
{"smiles": "O=C1CCc2ccc(OCCCCN3CCN(c4cccc(Cl)c4Cl)CC3)cc2N1", "note": "[Abilify, aripiprazole]", "values": [{"measurement": "success of treatment", "setting": "[1]", "result": "successful"}]}
{"smiles": "CC(C)NCC(O)COc1cccc2ccccc12", "note": "(stereo not drawn) [propranolol]", "values": [{"measurement": "character of rage when it occurred", "setting": "[2]; on propranolol, compared with before beta blocker treatment", "result": "wilder and more psychotic"}, {"measurement": "frequency of rages", "setting": "[2]; on the beta blocker propranolol", "result": "less frequent rages"}]}
{"smiles": "CC12CC3CC(C)(C1)CC(N)(C3)C2", "note": "[Namenda, memantine]", "values": [{"measurement": "effect on socialization", "setting": "[3]", "result": "increase their socialization"}, {"measurement": "effect on socialization", "setting": "[3]; listed as Mematine", "result": "increasing their socialization"}, {"measurement": "Improvement", "setting": "[4]; [6]", "result": "None"}, {"measurement": "Side Effects or Disinhibition", "setting": "[4]; [6]", "result": "None"}, {"measurement": "Improvement", "setting": "[4]; [7]", "result": "None"}, {"measurement": "Side Effects or Disinhibition", "setting": "[4]; [7]", "result": "None"}, {"measurement": "Degree or Detail of Improvement", "setting": "[4]; Day 3, no dose given", "result": "Spoke normally"}, {"measurement": "Improvement", "setting": "[4]; Day 3, no dose given", "result": "Slight"}, {"measurement": "Side Effects or Disinhibition", "setting": "[4]; Day 3, no dose given", "result": "None"}, {"measurement": "Degree or Detail of Improvement", "setting": "[4]; Day 4, no dose given", "result": "Same as Day 3"}, {"measurement": "Improvement", "setting": "[4]; Day 4, no dose given", "result": "Slight"}, {"measurement": "Side Effects or Disinhibition", "setting": "[4]; Day 4, no dose given", "result": "None"}, {"measurement": "Degree or Detail of Improvement", "setting": "[4]; [8]", "result": "Ate their meal"}, {"measurement": "Improvement", "setting": "[4]; [8]", "result": "Good"}, {"measurement": "Side Effects or Disinhibition", "setting": "[4]; [8]", "result": "None"}, {"measurement": "Degree or Detail of Improvement", "setting": "[4]; Day 6, no dose given", "result": "Same as Day 4"}, {"measurement": "Improvement", "setting": "[4]; Day 6, no dose given", "result": "Continues Good"}, {"measurement": "Side Effects or Disinhibition", "setting": "[4]; Day 6, no dose given", "result": "None"}, {"measurement": "Improvement", "setting": "[4]; Day 7, no dose given", "result": "Same"}, {"measurement": "Side Effects or Disinhibition", "setting": "[4]; Day 7, no dose given", "result": "None"}]}
{"smiles": "COc1cc2nc(N3CCN(C(=O)C4COc5ccccc5O4)CC3)nc(N)c2cc1OC", "note": "(stereo not drawn) [doxazosin]", "values": [{"measurement": "effect on severe psychotic symptoms", "setting": "[2]; doxazosin added, patient on propranolol and haloperidol", "result": "stopped the severe psychotic symptoms"}]}
{"smiles": "CNC1(C)C2CCC(C2)C1(C)C", "note": "(stereo not drawn) [mecamylamine]", "values": [{"measurement": "success of treatment", "setting": "[1]", "result": "successful"}, {"measurement": "duration of effect of improved verbal communication", "setting": "[5]; one dose", "result": "up to two"}, {"measurement": "duration of effect of improved verbal communication", "setting": "[5]; one weekly protocol", "result": "up to 4 months"}]}
